In paper PMC10609608, “Design, Synthesis, In Vitro Biological Evaluation and In Silico Molecular Docking Study of Benzimidazole-Based Oxazole Analogues: A Promising Acetylcholinesterase and Butyrylcholinesterase Inhibitors” (Molecules, 2023):

Experiments:
[1] = target: acetylcholinesterase (AChE) (Homo sapiens, UniProt P22303); assay: biochemical; conditions: in vitro; donepezil as standard; read-out: AChE IC50 ± SEM
Protocol: (§1) According to previously established protocols, in vitro AChE and BuChE inhibition profiles were evaluated with slight modifications.

[2] = target: butyrylcholinesterase (BuChE) (Homo sapiens, UniProt P06276); assay: biochemical; conditions: in vitro; donepezil as standard; read-out: BuChE IC50 ± SEM
butyrylcholinesterase (BuChE), sequence (P06276 29-602): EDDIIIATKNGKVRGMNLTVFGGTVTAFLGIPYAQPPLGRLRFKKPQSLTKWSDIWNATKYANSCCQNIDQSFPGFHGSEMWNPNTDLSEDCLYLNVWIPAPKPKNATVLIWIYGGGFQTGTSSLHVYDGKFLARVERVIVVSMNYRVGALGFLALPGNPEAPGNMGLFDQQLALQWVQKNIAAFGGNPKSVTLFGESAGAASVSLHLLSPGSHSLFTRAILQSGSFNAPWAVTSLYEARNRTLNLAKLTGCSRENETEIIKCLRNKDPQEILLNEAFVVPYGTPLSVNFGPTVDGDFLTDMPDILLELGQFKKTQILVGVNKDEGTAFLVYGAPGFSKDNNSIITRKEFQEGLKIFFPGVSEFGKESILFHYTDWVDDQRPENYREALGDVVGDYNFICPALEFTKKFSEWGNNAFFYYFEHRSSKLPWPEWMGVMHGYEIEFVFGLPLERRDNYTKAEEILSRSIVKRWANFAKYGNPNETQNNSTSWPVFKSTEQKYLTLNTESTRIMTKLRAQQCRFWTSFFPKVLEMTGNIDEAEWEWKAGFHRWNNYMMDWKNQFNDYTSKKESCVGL
Protocol: as §1

acetylcholinesterase (AChE), sequence (P22303 32-614): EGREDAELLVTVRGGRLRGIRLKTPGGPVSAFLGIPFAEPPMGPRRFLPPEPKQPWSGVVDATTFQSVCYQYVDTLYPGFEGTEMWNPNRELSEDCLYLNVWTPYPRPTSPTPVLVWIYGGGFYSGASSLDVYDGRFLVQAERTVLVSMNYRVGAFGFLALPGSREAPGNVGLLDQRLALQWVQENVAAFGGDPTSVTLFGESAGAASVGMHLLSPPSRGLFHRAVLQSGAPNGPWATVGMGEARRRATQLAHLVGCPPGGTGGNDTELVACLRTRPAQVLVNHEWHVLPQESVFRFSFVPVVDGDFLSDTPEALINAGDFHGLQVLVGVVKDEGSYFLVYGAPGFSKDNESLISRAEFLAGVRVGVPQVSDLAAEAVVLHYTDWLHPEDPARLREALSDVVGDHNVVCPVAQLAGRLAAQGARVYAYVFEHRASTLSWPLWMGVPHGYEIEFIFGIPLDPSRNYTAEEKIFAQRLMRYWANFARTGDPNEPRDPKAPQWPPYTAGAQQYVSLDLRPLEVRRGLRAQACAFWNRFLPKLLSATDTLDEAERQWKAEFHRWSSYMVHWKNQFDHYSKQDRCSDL

O=[N+]([O-])c1ccccc1-c1coc(N/N=C(/CSc2nc3ccccc3[nH]2)c2ccc(Cl)cc2)n1 [Compound 18, (E)-2-(2-(2-((1H-Benzo[d]imidazol-2-yl)thio)-1-(4-chlorophenyl)ethylidene)hydrazinyl)-4-(2-nitrophenyl)oxazole]
IC50 [1]: 0.8 ± 0.1 µM | IC50 [2]: 1.7 ± 0.1 µM

COc1ccc(/C(CSc2nc3ccccc3[nH]2)=N\Nc2nc(-c3ccccc3[N+](=O)[O-])co2)cc1 [Compound 1, (E)-2-(2-(2-((1H-Benzo[d]imidazol-2-yl)thio)-1-(4-methoxyphenyl)ethylidene)hydrazinyl)-4-(2-nitrophenyl)oxazole]
IC50 [1]: 1.1 ± 0.1 µM | IC50 [2]: 1.8 ± 0.1 µM

COc1cccc(-c2coc(N/N=C(/CSc3nc4ccccc4[nH]3)c3ccc(Cl)cc3)n2)c1 [Compound 19, (E)-2-(2-(2-((1H-Benzo[d]imidazol-2-yl)thio)-1-(4-chlorophenyl)ethylidene)hydrazinyl)-4-(3-methoxyphenyl)oxazole]
IC50 [1]: 2.7 ± 0.2 µM | IC50 [2]: 3.7 ± 0.1 µM

Cc1ccc(/C(CSc2nc3ccccc3[nH]2)=N\Nc2nc(-c3cccc([N+](=O)[O-])c3)co2)cc1 [Compound 3, (E)-2-(2-(2-((1H-Benzo[d]imidazol-2-yl)thio)-1-(p-tolyl)ethylidene)hydrazinyl)-4-(3-nitrophenyl)oxazole]
IC50 [1]: 4.4 ± 0.1 µM | IC50 [2]: 5.8 ± 0.1 µM

Cc1ccc(-c2coc(N/N=C(/CSc3nc4ccccc4[nH]3)c3ccc(-c4ccccc4)cc3)n2)cc1 [Compound 16, (E)-2-(2-(2-((1H-Benzo[d]imidazol-2-yl)thio)-1-([1,1′-biphenyl]-4-yl)ethylidene) Hydrazinyl)-4-(p-tolyl)oxazole]
IC50 [1]: 6.1 ± 0.1 µM | IC50 [2]: 9.3 ± 0.1 µM

Cc1ccc(/C(CSc2nc3ccccc3[nH]2)=N\Nc2nc(-c3ccc(Cl)cc3Cl)co2)cc1 [Compound 14, (E)-2-(2-(2-((1H-Benzo[d]imidazol-2-yl)thio)-1-(p-tolyl)ethylidene)hydrazinyl)-4-(2,4-dichlorophenyl)oxazole]
IC50 [1]: 0.2 ± 0.05 µM | IC50 [2]: 0.3 ± 0.05 µM

Cc1ccc(/C(CSc2nc3ccccc3[nH]2)=N\Nc2nc(-c3ccc(Cl)c(Cl)c3)co2)cc1 [Compound 6, (E)-2-(2-(2-((1H-Benzo[d]imidazol-2-yl)thio)-1-(p-tolyl)ethylidene)hydrazinyl)-4-(3,4-dichlorophenyl)oxazole]
IC50 [1]: 0.4 ± 0.05 µM | IC50 [2]: 1.1 ± 0.05 µM

Cc1ccc(/C(CSc2nc3ccccc3[nH]2)=N\Nc2nc(-c3ccc(C)cc3)co2)cc1 [Compound 4, (E)-2-(2-(2-((1H-Benzo[d]imidazol-2-yl)thio)-1-(p-tolyl)ethylidene)hydrazinyl)-4-(p-tolyl)oxazole]
IC50 [1]: 6.5 ± 0.2 µM | IC50 [2]: 8.3 ± 0.2 µM

CN(C)c1ccc(/C(CSc2nc3ccccc3[nH]2)=N\Nc2nc(-c3ccc(Br)cc3)co2)cc1 [Compound 7, (E)-4-(2-((1H-Benzo[d]imidazol-2-yl)thio)-1-(2-(4-(4-bromophenyl)oxazol-2-yl)hydrazono)ethyl)-N,N-dimethylaniline]
IC50 [1]: 12.6 ± 0.3 µM | IC50 [2]: 16.3 ± 0.3 µM

COc1cccc(-c2coc(N/N=C(/CSc3nc4ccccc4[nH]3)c3ccc(C)cc3)n2)c1 [Compound 5, (E)-2-(2-(2-((1H-Benzo[d]imidazol-2-yl)thio)-1-(p-tolyl)ethylidene)hydrazinyl)-4-(3-methoxyphenyl)oxazole]
IC50 [1]: 9.8 ± 0.2 µM | IC50 [2]: 11.5 ± 0.2 µM

O=[N+]([O-])c1ccccc1-c1coc(N/N=C(/CSc2nc3ccccc3[nH]2)c2ccccc2)n1 [Compound 17, (E)-2-(2-(2-((1H-Benzo[d]imidazol-2-yl)thio)-1-phenylethylidene)hydrazinyl)-4-(2-nitrophenyl)oxazole]
IC50 [1]: 2.5 ± 0.1 µM | IC50 [2]: 3.5 ± 0.1 µM

COc1ccccc1-c1coc(N/N=C(/CSc2nc3ccccc3[nH]2)c2ccc(C)cc2)n1 [Compound 8, (E)-2-(2-(2-((1H-Benzo[d]imidazol-2-yl)thio)-1-(p-tolyl)ethylidene)hydrazinyl)-4-(2-methoxyphenyl)oxazole]
IC50 [1]: 5.3 ± 0.2 µM | IC50 [2]: 7.2 ± 0.1 µM

COc1cccc(-c2coc(N/N=C(/CSc3nc4ccccc4[nH]3)c3ccccc3)n2)c1 [Compound 15, (E)-2-(2-(2-((1H-Benzo[d]imidazol-2-yl)thio)-1-phenylethylidene)hydrazinyl)-4-(3-methoxyphenyl)oxazole]
IC50 [1]: 5.4 ± 0.1 µM | IC50 [2]: 7.2 ± 0.1 µM

Cc1ccc(/C(CSc2nc3ccccc3[nH]2)=N\Nc2nc(-c3ccccc3)co2)cc1 [Compound 13, (E)-2-(2-(2-((1H-Benzo[d]imidazol-2-yl)thio)-1-(p-tolyl)ethylidene)hydrazinyl)-4-phenyloxazole]
IC50 [1]: 8.1 ± 0.1 µM | IC50 [2]: 9.7 ± 0.1 µM

O=[N+]([O-])c1cccc(-c2coc(N/N=C(/CSc3nc4ccccc4[nH]3)c3ccc(Cl)cc3)n2)c1 [Compound 11, (E)-2-(2-(2-((1H-Benzo[d]imidazol-2-yl)thio)-1-(4-chlorophenyl)ethylidene)hydrazi-nyl)-4-(3-nitrophenyl)oxazole]
IC50 [1]: 0.7 ± 0.05 µM | IC50 [2]: 1.2 ± 0.01 µM

Cc1ccc(/C(CSc2nc3ccccc3[nH]2)=N\Nc2nc(-c3ccccc3[N+](=O)[O-])co2)cc1 [Compound 2, (E)-2-(2-(2-((1H-Benzo[d]imidazol-2-yl)thio)-1-(p-tolyl)ethylidene)hydrazinyl)-4-(2-nitrophenyl)oxazole]
IC50 [1]: 1.6 ± 0.01 µM | IC50 [2]: 1.9 ± 0.1 µM

O=[N+]([O-])c1cccc(-c2coc(N/N=C(/CSc3nc4ccccc4[nH]3)c3ccccc3)n2)c1 [Compound 10, (E)-2-(2-(2-((1H-Benzo[d]imidazol-2-yl)thio)-1-phenylethylidene)hydrazinyl)-4-(3-nitrophenyl)oxazole]
IC50 [1]: 1.4 ± 0.1 µM | IC50 [2]: 2.1 ± 0.1 µM
